Data from patent US8673914B2, “Use of phosphodiesterase inhibitors for treating multidrug resistance” (St. John's University, priority 2011, dated 2014).
Where two headings read alike, the source gives them in different places. Each block holds one compound with its values, some of them ahead of it.

Tests used:
HEK293/pcDNA3.1 = experiment: MTT cytotoxicity/reversal assay (Example 1); type: cell-based; conditions: for fold reversal, vincristine: alone
Method: (§1) The KB-C2 and KB-3-1 were kindly provided by Dr. Akiyama (Kagoshima University, Japan). HEK293-pcDNA3.1 and wild-type HEK/ABCG2 transfected cells were established by selection with G418 after transfecting HEK293 with either (1) empty pcDNA3.1 vector or (2) pcDNA3.1 vector containing full length of ABCG2 coding arginine (R) at amino acid position 482, and were then cultured in a medium with 2 mg/ml of G418 (ABCG2-482-R2 cells). Similarly, the HEK/MRP1 (ABCC1) and HEK/ABCB1 cells were generated by transfecting the HEK293 cells with either the MRP1 expression vector or the ABCB1 expression vector. All of the cell lines were grown in Dulbecco's modified Eagle's medium (DMEM) supplemented with 10% bovine serum, 100 units/ml penicillin, and […] streptomycin in a humidified incubator containing 5% CO2 at 37° C.
(§2) The MTT assay was used to assess cytotoxicity. The cultured cells were harvested with trypsin and resuspended in a final concentration of 4×10^3 cells/well for KB-3-1; 7.5×10^3 cells/well for KB-C2; and 8×10^3 for all of the other cell lines used in this study. Cells were seeded evenly in 96-well multiplates. […] After 68 h of incubation, 20 μl of the MTT solution (4 mg/ml) was added to each well, and the plate was further incubated for 4 h at 37° C., allowing viable cells to convert the yellow-colored MTT into dark-blue formazan crystals. Subsequently, the medium was discarded, and 100 μl of DMSO was added into each well to dissolve the formazan crystals, generating purple color. The absorbance was determined at 570 nm by an OPSYS Microplate Reader from DYNEX Technologies, Inc. (Chantilly, Va.). […] The degree of the reversal of multidrug resistance (MDR) was calculated by dividing the IC50 of an anticancer drug, e.g., an antineoplastic or chemotherapeutic drug (agent, compound), in a cell type in the absence of a reversal agent by the IC50 of the anticancer drug in the same cell type in the presence of the reversal agent. The IC50 values were calculated from survival curves using the Bliss method.

ABCG2-482-R2 (ABCG2) = experiment: MTT cytotoxicity/reversal assay (Example 1); conditions: +10 μM reversal agent
Method: as §1, §2

parental cells = experiment: [^3H]-mitoxantrone accumulation; type: cell-based
Method: (§3) After washing 3 times with ice-cold PBS, the cells were trypsinized and lysed in 10 mM lysis buffer (pH 7.4, containing 1% Triton X-100 and 0.2% SDS). Each sample was placed in scintillation fluid and radioactivity was measured in a Packard TRI-CARB 1900CA liquid scintillation analyzer from Packard Instrument Company, Inc.

[1] = In vitro transport assay, membrane vesicles; type: biochemical; conditions: HEK293/pcDNA3.1 vesicles
Method: Transport assays were carried out using the rapid filtration method as described in Chen et al. (2003) Cancer Res. 63:4048-54. […] Reactions were stopped by the addition of 3 mL of ice-cold stop solution (0.25 M sucrose, 100 mM NaCl, and 10 mM Tris-HCl, pH 7.4). During the rapid filtration step, samples were passed through 0.22 μm GVWP filters (Millipore) presoaked in the stop solution. The filters were washed three times with 3 mL of ice-cold stop solution. Radioactivity was measured by liquid scintillation counting.

ABCG2 [2] = target: T1, ABCG2 (Homo sapiens, UniProt Q9UNQ0); experiment: Photoaffinity labeling with [^125I]-IAAP (Example 2); type: binding; set-up: endogenous in cells; host or cells: MCF7/FLV1000 (MCF-7/Flv1000) crude membranes; conditions: 10 μM
T1 sequence (Q9UNQ0 whole entry): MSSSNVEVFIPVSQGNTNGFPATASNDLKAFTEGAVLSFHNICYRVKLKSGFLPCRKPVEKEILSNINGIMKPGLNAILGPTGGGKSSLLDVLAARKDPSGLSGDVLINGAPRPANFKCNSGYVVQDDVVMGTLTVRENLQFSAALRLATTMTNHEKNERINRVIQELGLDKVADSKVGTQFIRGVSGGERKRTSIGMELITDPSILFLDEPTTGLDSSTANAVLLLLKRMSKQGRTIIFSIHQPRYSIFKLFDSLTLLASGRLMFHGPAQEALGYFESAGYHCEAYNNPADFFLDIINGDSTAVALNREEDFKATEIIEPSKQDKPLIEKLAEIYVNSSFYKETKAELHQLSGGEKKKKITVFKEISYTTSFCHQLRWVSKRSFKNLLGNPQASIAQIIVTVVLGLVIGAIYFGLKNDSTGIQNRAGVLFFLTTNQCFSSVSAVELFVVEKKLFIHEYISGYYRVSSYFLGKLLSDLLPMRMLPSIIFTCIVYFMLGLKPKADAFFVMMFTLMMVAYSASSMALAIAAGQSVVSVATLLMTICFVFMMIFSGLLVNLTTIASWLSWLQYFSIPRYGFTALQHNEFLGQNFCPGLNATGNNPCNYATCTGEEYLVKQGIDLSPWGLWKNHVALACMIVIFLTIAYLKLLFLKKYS
Method: The photoaffinity labeling of ABCB1 and ABCG2 with [^125I]-IAAP was conducted as described in Sauna et al., supra. The crude membranes from HIGH FIVE™ insect cells expressing ABCB1 and MCF7/FLV1000 cells expressing R482 ABCG2 (50 μg of protein) were incubated at room temperature with different concentrations of drugs in 50 mM Tris-HCl (pH 7.5) with [^125I]-IAAP (5-7 nM) for 5 min under subdued light. […] ABCB1 and ABCG2 were immunoprecipitated using BXP-21 antibodies as described in Shukla et al., supra. Both ABCB1 and ABCG2 samples were subjected to SDS-PAGE in a 7% Trisacetate NuPAGE gel, the gel was dried, and exposed to Bio-Max MR film (Eastman Kodak Co.) at −70° C. for 8 to 12 h. The radioactivity incorporated into the ABCB1 or ABCG2 band was quantified using the STORM 860 Phosphorlmager System and ImageQuaNT (Molecular Dynamics).

KB-3-1 cells = experiment: [^3H]-paclitaxel accumulation (Example 2); type: cell-based, human; conditions: parental KB-3-1
Method: as §3

[3] = MTT cytotoxicity/reversal assay (Example 1); conditions: human
Method: (§4) The KB-C2 and KB-3-1 were kindly provided by Dr. Akiyama (Kagoshima University, Japan). […] Similarly, the HEK/MRP1 (ABCC1) and HEK/ABCB1 cells were generated by transfecting the HEK293 cells with either the MRP1 expression vector or the ABCB1 expression vector. All of the cell lines were grown in Dulbecco's modified Eagle's medium (DMEM) supplemented with 10% bovine serum, 100 units/ml penicillin, and […] streptomycin in a humidified incubator containing 5% CO2 at 37° C.
as §2

HEK/ABCB1 (ABCB1) = experiment: MTT cytotoxicity/reversal assay (Example 1); conditions: HEK/ABCB1; alone
Method: as §4, §2

[4] = MTT cytotoxicity/reversal assay (Example 1); type: cell-based; conditions: human; HEK/MRP1; alone; read-out: IC50 of vincristine
Method: as §4, §2

HEK/MRP1 (ABCC1) = experiment: MTT cytotoxicity/reversal assay (Example 1); type: cell-based; conditions: alone
Method: as §4, §2

[5] = test system: any of the cell lines used; experiment: MTT assay, sildenafil alone; type: cell-based; conditions: concentrations of up to 50 μM
Method: Cells in 96-well plates were preincubated with or without the reversal agents for 1 h and then different concentrations of chemotherapeutic drugs were added into designated wells. After 68 h of incubation, MTT solution (4 mg/mL) was added to each well, and the plate was further incubated for 4 h, allowing viable cells to change the yellow-colored MTT into dark-blue formazan crystals. Subsequently the medium was discarded, and […] of DMSO was added into each well to dissolve the formazan crystals. The absorbance was determined at 570 nm by an OPSYS MR Microplate Reader from DYNEX Technologies, Inc.

[6] = test system: KB-C2 and KB-V1 cells (ABCB1); experiment: [^3H]-paclitaxel accumulation (Example 2); type: cell-based, human; conditions: 10 μM
Method: as §3, with “Cells in 24-well plates were preincubated with or without the reversal agents for 1 h at 37° C., then incubated with 0.1 μM [^3H]-paclitaxel or 0.2 μM [^3H]-mitoxantrone for 2 h in the presence or absence of the reversal agents at 37° C. After” for “After”

[7] = test system: ABCG2-overexpressing cell lines; experiment: [^3H]-mitoxantrone accumulation; type: cell-based; conditions: 10 or 50 μM
Method: as §3, with “Cells in 24-well plates were preincubated with or without the reversal agents for 1 h at 37° C., then incubated with 0.1 μM [^3H]-paclitaxel or 0.2 μM [^3H]-mitoxantrone for 2 h in the presence or absence of the reversal agents at 37° C. After” for “After”

[8] = test system: cells expressing wild-type or mutant ABCG2; experiment: BODIPY-prazosin flow cytometric assay; type: cell-based; conditions: 50 μM; weaker than FTC at […]
Method: Flow cytometric assays were carried out as follows. […] Cells were then washed once in cold complete medium and then incubated for another 1 h at 37° C. in substrate-free media with or without the same described concentrations of the inhibitors to generate the efflux histograms. Subsequently, cells were washed twice with cold DPBS (Dulbecco's PBS) and placed on ice in a dark environment until ready for analysis. […] For all samples, at least 10,000 events were collected. Cell debris was eliminated by gating on forward versus side scatter, and dead cells were excluded on the basis of propidium iodide staining.

ABCB1 = target: T2, ABCB1 (Homo sapiens, UniProt P08183); experiment: Vi-sensitive ATPase assay (Example 2); type: biochemical; conditions: read-out: concentration required for 50% stimulation of ATPase activity
T2 construct: made in house; host or cells: High Five insect cells (membrane vesicles / crude membranes)
T2 sequence (P08183 whole entry): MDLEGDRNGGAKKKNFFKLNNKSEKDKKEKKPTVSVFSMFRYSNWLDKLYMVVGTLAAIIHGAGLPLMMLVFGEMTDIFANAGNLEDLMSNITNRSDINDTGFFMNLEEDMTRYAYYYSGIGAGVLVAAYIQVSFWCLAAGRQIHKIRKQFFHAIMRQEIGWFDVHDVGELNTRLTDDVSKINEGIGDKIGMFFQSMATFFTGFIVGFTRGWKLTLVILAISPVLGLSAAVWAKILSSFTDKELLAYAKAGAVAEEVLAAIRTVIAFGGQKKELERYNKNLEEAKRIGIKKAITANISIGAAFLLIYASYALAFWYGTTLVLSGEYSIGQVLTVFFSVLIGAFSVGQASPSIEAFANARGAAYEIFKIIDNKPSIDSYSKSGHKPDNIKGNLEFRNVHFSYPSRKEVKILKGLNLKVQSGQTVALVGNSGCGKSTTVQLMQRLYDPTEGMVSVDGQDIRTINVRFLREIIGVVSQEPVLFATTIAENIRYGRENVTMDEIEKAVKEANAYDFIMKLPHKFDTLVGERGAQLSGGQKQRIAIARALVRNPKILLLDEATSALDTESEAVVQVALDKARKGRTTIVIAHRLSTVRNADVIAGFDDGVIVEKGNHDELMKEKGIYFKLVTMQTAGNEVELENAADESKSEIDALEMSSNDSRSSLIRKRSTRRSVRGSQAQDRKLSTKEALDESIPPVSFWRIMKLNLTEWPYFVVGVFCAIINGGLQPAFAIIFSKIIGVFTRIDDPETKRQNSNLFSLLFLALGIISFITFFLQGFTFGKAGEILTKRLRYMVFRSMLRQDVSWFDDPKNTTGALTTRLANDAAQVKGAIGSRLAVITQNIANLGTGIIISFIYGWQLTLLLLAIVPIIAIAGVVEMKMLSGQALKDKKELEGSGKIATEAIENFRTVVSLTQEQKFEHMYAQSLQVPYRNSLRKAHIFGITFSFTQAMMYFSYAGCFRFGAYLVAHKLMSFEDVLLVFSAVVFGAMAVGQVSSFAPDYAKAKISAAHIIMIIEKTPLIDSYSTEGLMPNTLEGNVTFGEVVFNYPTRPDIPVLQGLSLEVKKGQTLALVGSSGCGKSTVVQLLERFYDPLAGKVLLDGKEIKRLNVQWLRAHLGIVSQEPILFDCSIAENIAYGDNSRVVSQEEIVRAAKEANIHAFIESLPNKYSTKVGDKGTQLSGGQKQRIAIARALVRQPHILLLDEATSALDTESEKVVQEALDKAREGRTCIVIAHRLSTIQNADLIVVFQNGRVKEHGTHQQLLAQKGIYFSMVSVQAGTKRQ
Method: (§5) The vanadate (Vi)-sensitive ATPase activity of ABCB1 or ABCG2 in the membrane vesicles of HIGH FIVE™ insect cells was measured as described in Ambudkar et al., supra. The membrane vesicles (100 μg of protein/mL) were incubated in ATPase assay buffer (50 mM MES, pH 6.8, 50 mM KCl, 5 mM sodium azide, 2 mM EGTA, 2 mM dithiothreitol, 1 mM ouabain, and 10 mM MgCl2) with or without 0.3 mM vanadate at 37° C. for 5 min, and then incubated with different concentrations of drugs at 37° C. for 3 min. The ATPase reaction was […] by the addition of 5 mM Mg-ATP. After incubating at 37° C. for 20 min, the reactions were stopped by adding 0.1 mL of 5% SDS solution. The liberated inorganic phosphate was measured as described in Shukla et al. (2006) Biochemistry 45:8940-51.

ABCG2 [9] = target: T1, ABCG2; experiment: Vi-sensitive ATPase assay (Example 2); type: biochemical; conditions: read-out: concentration required for 50% stimulation of ATPase activity
Method: as §5

KB-C2 xenografts = experiment: Mouse tumor xenografts; type: in vivo, mice; conditions: sildenafil 75 mg/kg p.o. + paclitaxel 18 mg/kg i.p. vs paclitaxel alone
From the text: Six-to-eight-week old male athymic NCR nude mice from Taconic (Hudson, N.Y.) were used for all xenografts. The mice were provided with sterilized food and water. The animal protocol was reviewed and approved by the Institutional Animal Care and Use Committee at St. John's University. […] When the tumors reached 0.5 cm, the mice were randomized into four groups, six mice per group: […] […] Mice were euthanized when the tumor weight exceeded 1 gram in the control group, and the tumors were excised and weighed.

HEK/MRP7 cells [10] = experiment: [^3H]-paclitaxel accumulation (Example 4); type: cell-based; conditions: 5 μM, 2 h
Method: (§6) The effect of PDE5 inhibitors on the intracellular accumulation of paclitaxel in HEK293-pcDNA3.1 and HEK/MRP7 cells was measured using [^3H]-paclitaxel. […] For efflux studies, the cells were treated the same as in the drug accumulation study, and then washed three times with ice-cold PBS, and suspended in fresh medium with or without PDE5 inhibitors. Aliquots were evenly collected at various time points (0, 30, 60, and 120 min). Samples from both accumulation and efflux experiments were washed with ice-cold PBS three times and placed in scintillation fluid, and the radioactivity was measured in a Packard TRI-CARB® 1900CA liquid scintillation analyzer from Packard Instrument Company, Inc. (Downers Grove, Ill.).

HEK/MRP7 cells [11] = experiment: [^3H]-paclitaxel efflux (Example 4); type: cell-based; conditions: 5 μM PDE5 inhibitor
Method: as §6

[12] = test system: MRP7 localization in HEK/MRP7 cells; experiment: Immunofluorescence of MRP7; type: cell-based; conditions: 5 μM; 72 h
Method: HEK/MRP7 cells (1×10^4) were seeded in 24 well plates and cultured overnight. […] Cells were washed with PBS and fixed with 4% paraformaldehyde for 15 min at room temperature and then rinsed with PBS three times. Nonspecific reaction was blocked with 1% BSA for 1 h at room temperature. A polyclonal antibody D19 against MRP7 (1:200) was added and incubated overnight. […] DAPI was used for nuclear staining. Immunofluorescent images were taken with an inverted microscope (model IX70; Olympus, Center Valley, Pa.) with IX-FLA fluorescence and CCD camera.

Compound: COc1ccc2c3c([nH]c2c1)[C@H](C=C(C)C)N1C(=O)[C@@H]2CCCN2C(=O)[C@@H]1C3 [FTC, Fumitremorgin C]
fold reversal, SN-38 (HEK293/pcDNA3.1; HEK293/pcDNA3.1, +10 μM reversal agent): (1.13) | fold reversal, SN-38 (ABCG2-482-R2 (ABCG2)): (3.84) | intracellular levels of [^3H]-mitoxantrone (parental cells): Neither sildenafil nor FTC affected the intracellular levels | uptake rates of methotrexate and E217βG [1]: moderately decreased the uptake rates | inhibition of [^125I]-IAAP photolabeling (ABCG2 [2]): about 40%

Compound: COc1ccc(CCN(C)CCCC(C#N)(c2ccc(OC)c(OC)c2)C(C)C)cc1OC (centres unmarked) [Verapamil, verapamil]
intracellular levels of [^3H]-paclitaxel (KB-3-1 cells): Neither sildenafil nor verapamil altered the intracellular levels

Compound: CC[C@]1(O)C[C@H]2CN(CCc3c([nH]c4ccccc34)[C@@](C(=O)OC)(c3cc4c(cc3OC)N(C=O)[C@H]3[C@@](O)(C(=O)OC)[C@H](OC(C)=O)[C@]5(CC)C=CCN6CC[C@]43[C@@H]65)C2)C1 [Vincristine, vincristine]
fold reversal, vincristine (HEK293/pcDNA3.1; HEK293/pcDNA3.1 (Table 6)): (1.00) | fold reversal, vincristine (HEK293/pcDNA3.1; HEK293/pcDNA3.1): (1.00) | IC50 at 68 h [3]: 170 ± 12.9 µM | fold reversal, vincristine (HEK/ABCB1 (ABCB1)): (1.00) | IC50 at 68 h [4]: 0.0106 ± 0.0022 µM | fold reversal, vincristine (HEK/MRP1 (ABCC1)): (1.00)

EC50 (ABCB1): 5 to 10 µM | EC50 (ABCG2 [9]): 0.25 to 0.5 µM
Compound: CCCc1nn(C)c2c(=O)nc(-c3cc(S(=O)(=O)N4CCN(C)CC4)ccc3OCC)[nH]c12 [Sildenafil, sildenafil]
growth inhibition by sildenafil alone [5]: did not inhibit the growth of any of the cell lines used | intracellular level of [^3H]-paclitaxel [6]: significantly increased the intracellular level | intracellular levels of [^3H]-paclitaxel (KB-3-1 cells): Neither sildenafil nor verapamil altered the intracellular levels | intracellular [^3H]-mitoxantrone levels [7]: elevated intracellular [^3H]-mitoxantrone levels | intracellular levels of [^3H]-mitoxantrone (parental cells): Neither sildenafil nor FTC affected the intracellular levels | accumulation of BODIPY-prazosin [8]: enhanced the accumulation of BODIPY-prazosin | tumor weight and volume (KB-C2 xenografts): significant reduction in tumor weight and volume | increase of intracellular accumulation of [^3H]-paclitaxel (HEK/MRP7 cells [10]): 3.3 fold | percentage of intracellular [^3H]-paclitaxel (HEK/MRP7 cells [11]; 30 min): 90.62% | percentage of intracellular [^3H]-paclitaxel (HEK/MRP7 cells [11]; 60 min): 82.14% | percentage of intracellular [^3H]-paclitaxel (HEK/MRP7 cells [11]; 120 min): 62.35% | MRP7 protein localization in plasma membranes [12]: no alteration of MRP7 protein localization
